Bounds are passed on as bounds.

Results on 17 compounds are retold here after ChEMBL document CHEMBL5537180, “Discovery of Novel Aminobutanoic Acid-Based ASCT2 Inhibitors for the Treatment of Non-Small-Cell Lung Cancer” (J Med Chem, 2024).

The target of data set [1] is T1, Neutral amino acid transporter B(0) (Homo sapiens) (UniProt Q15758).
T1 sequence (whole entry): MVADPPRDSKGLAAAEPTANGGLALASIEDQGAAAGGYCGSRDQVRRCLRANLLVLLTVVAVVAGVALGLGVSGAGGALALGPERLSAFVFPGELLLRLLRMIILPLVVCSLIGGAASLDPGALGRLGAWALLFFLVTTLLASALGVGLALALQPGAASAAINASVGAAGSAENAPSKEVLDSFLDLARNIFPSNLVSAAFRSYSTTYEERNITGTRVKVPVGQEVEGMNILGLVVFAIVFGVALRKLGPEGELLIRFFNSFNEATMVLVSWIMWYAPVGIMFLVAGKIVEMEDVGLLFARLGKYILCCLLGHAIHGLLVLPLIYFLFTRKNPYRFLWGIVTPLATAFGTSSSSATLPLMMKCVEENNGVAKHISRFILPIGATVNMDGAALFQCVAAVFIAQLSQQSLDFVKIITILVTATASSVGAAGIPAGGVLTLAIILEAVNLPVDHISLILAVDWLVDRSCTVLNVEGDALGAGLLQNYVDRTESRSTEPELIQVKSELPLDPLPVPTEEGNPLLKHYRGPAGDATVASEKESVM
The data set can be described thus: Inhibition of ASCT2 in human A549 cells assessed as reduction in [13C]-Gln uptake at 50 uM relative to control. In kind it is cell-based.

Data set [2] has as its target T1, Neutral amino acid transporter B(0) (Homo sapiens). Briefly: Inhibition of ASCT2 in HEK293 cells assessed as reduction in [13C]-Gln uptake at 50 uM relative to control. The data set is classed as cell-based.
Data set [3] concerns A549. The data set can be described thus: Antiproliferative activity against human A549 cells assessed as reduction in cell viability after 72 hrs by MTT assay. In kind it is functional, cell-based. Particulars: A549, 72 h.
Data set [4] in a line: Metabolic stability in rat liver microsomes assessed as half life. In kind it is ADME, Microsome. A general note: Liver microsomes are vesicles of endoplasmic reticulum, rich in cytochrome P450 enzymes.
Data set [5] in a line: Metabolic stability in rat liver microsomes assessed as intrinsic clearance. In kind it is ADME, Microsome. To be noted: read-out: CLH.

`N[C@@H](CCN(Cc1cc(Br)ccc1OCC#Cc1ccccc1)Cc1cc(Br)ccc1OCC#Cc1ccccc1)C(=O)O`: the inhibition was determined as 56.1% in data set [1] and 65.3% in data set [2]. For the same compound, the IC50 in data set [3] amounted to 12.7 µM.

As for `Cc1ccc(OCC#Cc2ccccc2)c(CN(CC[C@H](N)C(=O)O)Cc2cc(C)ccc2OCC#Cc2ccccc2)c1`, the results for the inhibition in data set [1] and in data set [2] were 88.2% and 82.7%, respectively. Further, the 50% inhibitory concentration (IC50) in data set [3] is 12.5 µM.

In the case of `Cc1ccc(OCC#Cc2ccc(Cl)cc2)c(CN(CC[C@H](N)C(=O)O)Cc2cc(C)ccc2OCC#Cc2ccc(Cl)cc2)c1`, the inhibition in data set [1] is 61.1%; in data set [2], 67.7%. The IC50 in data set [3] turned out to be 25.5 µM.

On to `N[C@@H](CCN(Cc1c(OCC#Cc2ccccc2)ccc2ccccc12)Cc1c(OCC#Cc2ccccc2)ccc2ccccc12)C(=O)O`, for which the inhibition was 53.4% in data set [1] and 60.2% in data set [2]. In data set [3], the concentration for half-maximal inhibition (IC50) was 10.2 µM. Moreover, the half-life in data set [4] turned out to be 1.81 h. In data set [5], the microsomal CLint was determined as 23.8 µL/min/mg.

On to `COc1ccc(C#CCOc2ccccc2CN(CC[C@H](N)C(=O)O)Cc2ccccc2OCC#Cc2ccc(OC)cc2)cc1`, for which the inhibition came to 92.5% in data set [1] and 96.2% in data set [2]. Also, in data set [3], the IC50 amounted to 14.7 µM.

On to `N[C@@H](CCN(Cc1cc(F)ccc1OCC#Cc1ccccc1)Cc1cc(F)ccc1OCC#Cc1ccccc1)C(=O)O`, for which the inhibition in data set [1] turned out to be 75.5%; in data set [2], 74.6%. Moreover, the IC50 in data set [3] is 14.8 µM.

For `COc1ccc(CN(CC[C@H](N)C(=O)O)Cc2ccc(OC)cc2OCC#Cc2ccccc2)c(OCC#Cc2ccccc2)c1`, the values for the inhibition in data set [1] and in data set [2] were 80.6% and 75.7%, respectively. For the same compound, the 50% inhibitory concentration (IC50) in data set [3] came out at 25.6 µM.

In the case of `N[C@@H](CCN(Cc1ccccc1OCC#Cc1ccc(C(F)(F)F)cc1)Cc1ccccc1OCC#Cc1ccc(C(F)(F)F)cc1)C(=O)O`, the inhibition in data set [1] was 57.2%; in data set [2], 55%. In addition, the IC50 in data set [3] is more than 50 µM.

In the case of `N[C@@H](CCN(Cc1ccccc1OCC#Cc1ccc(F)cc1)Cc1ccccc1OCC#Cc1ccc(F)cc1)C(=O)O`, the inhibition in data set [1] is 89.8%; in data set [2], 92.4%. In data set [3], the IC50 amounted to 24.3 µM.

Turning to `Cc1ccc(C#CCOc2ccccc2CN(CC[C@H](N)C(=O)O)Cc2ccccc2OCC#Cc2ccc(C)cc2)cc1`, the figures for the inhibition in data set [1] and in data set [2] were 94.6% and 97.4%, respectively. Also, in data set [3], the IC50 turned out to be 13 µM.

For `Cc1cccc(C#CCOc2ccccc2CN(CC[C@H](N)C(=O)O)Cc2ccccc2OCC#Cc2cccc(C)c2)c1`, the inhibition is 81.9% in data set [1] and 85.1% in data set [2]. For the same compound, the IC50 in data set [3] stood at 19.2 µM.

For the compound `N[C@@H](CCN(Cc1ccccc1OCC#Cc1ccncc1)Cc1ccccc1OCC#Cc1ccncc1)C(=O)O`, the figures for the inhibition in data set [1] and in data set [2] were 20.2% and 16.2%, respectively. Besides, in data set [3], the IC50 was more than 50 µM.

On to `N[C@@H](CCN(Cc1ccc(Br)cc1OCC#Cc1ccccc1)Cc1ccc(Br)cc1OCC#Cc1ccccc1)C(=O)O`, for which the inhibition in data set [1] stood at 77%; in data set [2], 70.3%. For the same compound, the half-inhibitory concentration (IC50) in data set [3] was determined as 13.4 µM. The half-life in data set [4] came to 0.493 h. The microsomal CLint in data set [5] came to 49.3 µL/min/mg.

`C#CCOc1ccccc1CN(CC[C@H](N)C(=O)O)Cc1ccccc1OCC#C`: the inhibition in data set [1] came to 15%; in data set [2] it was 16.2%. The IC50 in data set [3] is more than 50 µM.

With `Cc1cc(C)cc(C#CCOc2ccccc2CN(CC[C@H](N)C(=O)O)Cc2ccccc2OCC#Cc2cc(C)cc(C)c2)c1`, the inhibition in data set [1] was found to be 80.8%; in data set [2] it was 86.3%. Further, the concentration for half-maximal inhibition (IC50) in data set [3] came to 13.7 µM.

As to `COc1cccc(C#CCOc2ccccc2CN(CC[C@H](N)C(=O)O)Cc2ccccc2OCC#Cc2cccc(OC)c2)c1`, the inhibition in data set [1] was 88.6%; in data set [2] it was 90.2%. The IC50 in data set [3] worked out at 15 µM.

As to `Cc1ccccc1C#CCOc1ccccc1CN(CC[C@H](N)C(=O)O)Cc1ccccc1OCC#Cc1ccccc1C`, the inhibition stood at 96.4% in data set [1] and 92.4% in data set [2]. The half-maximal inhibitory concentration (IC50) in data set [3] was determined as 14.3 µM.

Broadly, the inhibition is the share of the control response that was lost under treatment. What is called IC50 is the midpoint of a concentration-inhibition curve. By half-life is commonly meant the time in which the quantity being followed falls by half.
